# Measurements reported in publication PMC8327158, “PEGylated AdipoRon derivatives improve glucose and lipid metabolism under insulinopenic and high-fat diet conditions” (Journal of Lipid Research, 2021).
# Test system: HFD-fed wild-type mice
# Assay: Sphingolipid levels in tissues and serum of HFD-fed mice by mass spectrometry
# Assay type: in vivo, mouse
# Conditions: for Cer 14:0 / Cer 16:0 / Cer 18:0 / Cer 18:1 / Cer 20:0 / Cer 22:0 / Cer 24:0 / Cer 24:1 / Cer 26:0 / Cer 26:1 / DeoxySphinganie / Deoxysphingosine / Hexosyl 14:0 / Hexosyl 16:0 / Hexosyl 18:0 / Hexosyl 20:0 / Hexosyl 22:0 / Hexosyl 24:0 / Hexosyl 24:1 / Lactosyl 16:0 / Lactosyl 18:0 / Lactosyl 22:0 / Lactosyl 24:1 / Lactosyl C24:0 / Sphingaine1P / Sphinganine / Sphingosine / Sphingosine1P / dCer 16:0 / dCer 18:0 / dCer 20:0 / dCer 22:0 / dCer 24:0 / dCer 24:1: 5 mg/kg twice a day 5 days, average ± SD
# Protocol: Six-week-old wild-type male mice were fed HFD for 4 weeks or 7 months In total, 5 mg/Kg of PBS, Adiporon, AdipoRonPEG5, AdipoRonPEG6HTL were injected twice a day for 5 days. After 5 days of treatment, systemic test is performed, and serum (Before and after treatment), subcutaneous, epididymal, liver, heart samples were harvested for qPCR and sphingolipid analysis.
# Flash-frozen tissue samples (~40 mg) in a borosilicate glass tube were quenched with 2.0 ml of organic extraction solvent (isopropanol: ethyl acetate, 15:85; v:v) and homogenized with a mechanical tissue disruptor. Immediately afterward, 20 μl of organic internal standard solution was added (Ceramide/Sphingoid Internal Standard Mixture II diluted 1:10 in ethanol). The mixture was vortexed for 20 s and sonicated in ultrasonic bath for 40 min at 40°C. The organic extract was allowed to reach room temperature, and 1.5 ml of HPLC water was added and a two-phase liquid-liquid extraction was performed. The upper phase was transferred to a new clean tube, and the lower aqueous phase containing the protein pellet was re-extracted with additional 2.0 ml of organic extraction solvent. The organic phases were combined and dried under nitrogen stream at 40°C. Dried extracts were stored at –80°C until analysis. For analysis of ceramides and sphingoid base species, the dried residues were reconstituted in 200 μl of methanol. Sphingomyelins required a sample dilution of 1:50 in methanol prior to analysis. Serum sphingolipids were extracted using a similar methodology requiring 25 μl of serum.
# Liver, subcutaneous adipose tissue, pancreas, pancreatic islets were initially homogenized in 500 μl of cold PBS using an ultrasonic probe disruptor and keeping the sample on ice during sonication. In total, 50 μl of aqueous homogenate was aliquoted for protein determination. In total, 400 μl of the lysate was immediately quenched in 2.0 ml of organic extraction solvent.
# In total, 5 μl of reconstituted samples was injected into an LC/MS/MS system for the analysis of ceramides and sphingoid bases, and 1 μl injection was required for the analysis of sphingomyelins. The system consisted of a Shimadzu LCMS-8050 triple-quadrupole mass spectrometer with the dual ion source operating in electrospray positive ionization mode. The mass spectrometer is coupled to a Shimadzu Nexera X2 UHPLC system equipped with three solvent delivery modules LC-30AD, three degassing units DGU-20A5R, an autosampler SIL-30ACMP, and a column oven CTO-20AC operating at 40°C (Shimadzu Scientific Instruments, Columbia, MD). Six sphingoid bases (d18:1 sphingosine, d18:1 sphingosine-1-phosphate, d18:1 deoxysphingosine, d18:0 sphinganine, d18:0 sphinganine-1-phosphate, d18:0 deoxysphinganine) and […] ceramide species and their metabolites (C16:0, C16:0 dihydroceramide, C16:0 glucosylceramide, C16:0 lactosylceramide, C16:0 sphingomyelin, C18:0, C18:0 dihydroceramide, C18:0 glucosylceramide, C18:0 sphingomyelin, C18:1, C20:0, C22:0, C22:0 glucosylceramide, C24:0, C24:0 dihydroceramide, C24:0 lactosylceramide, C24:0 sphingomyelin, C24:1, C24:1 dihydroceramide, C24:1 glucosylceramide, C24:1 sphingomyelin). Quantitative analysis of sphingolipids was achieved using selective reaction monitoring scan mode. Lipid separation was achieved by reverse phase LC on a 2.1 (i.d.) × 150 mm Ascentis Express C8, 2.7 micron (Supelco, Bellefonte, PA) column under gradient elution, using three different mobile phases: eluent A consisting of methanol/water/formic acid, 600/400/0.8, v/v/v with 5 mM ammonium formate, eluent B consisting of methanol/formic acid, 1,000/0.8, v/v with 5 mM ammonium formate, and eluent C consisting of CH3OH/CH2Cl2 350/650. The concentration of each metabolite was determined according to calibration curves using the peak-area ratio of analyte versus corresponding internal standard. Calibration curves were generated using serial dilutions of each target analyte.
structure (smiles),measurement,setting,value
O=C(COc1ccc(C(=O)c2ccccc2)cc1)NC1CCN(Cc2ccccc2)CC1 [AdipoRon],scWAT ceramide levels,5 mg/kg,neither AdipoRon nor AdipoRonPEG5 had a noticeable impact
same,hepatic dihydroceramides,IP 5 mg/kg,nor did it lower dihydroceramide
same,sphingoid bases including S1P in the liver,IP 5 mg/kg,neither increased sphingoid bases
same,Cer 14:0,liver,11180.9 ± 7129.23 pg/mg
same,Cer 16:0,liver,15452.5 ± 14214.83 pg/mg
same,Cer 18:0,liver,47128.6 ± 39264.7 pg/mg
same,Cer 18:1,liver,0 pg/mg
same,Cer 20:0,liver,2021924.3 ± 1132557.52 pg/mg
same,Cer 22:0,liver,21221267.5 ± 1938950.14 pg/mg
same,Cer 24:0,liver,8844684.8 ± 1440139.38 pg/mg
same,Cer 24:1,liver,7621686.9 ± 1072827.16 pg/mg
same,Cer 26:0,liver,108319.5 ± 12837.73 pg/mg
same,Cer 26:1,liver,87632.7 ± 14143.63 pg/mg
same,DeoxySphinganie,liver,16855.9 ± 5197.82 pg/mg
same,Deoxysphingosine,liver,554.4 ± 112.17 pg/mg
same,Hexosyl 14:0,liver,6839.3 ± 2807.56 pg/mg
same,Hexosyl 16:0,liver,2057918.6 ± 682419.73 pg/mg
same,Hexosyl 18:0,liver,13702.3 ± 11183.27 pg/mg
same,Hexosyl 20:0,liver,139906.7 ± 74494.86 pg/mg
same,Hexosyl 22:0,liver,21992555.3 ± 7887275.74 pg/mg
same,Hexosyl 24:0,liver,9407290.2 ± 3691767.57 pg/mg
same,Hexosyl 24:1,liver,7250991.4 ± 2638110.11 pg/mg
same,Lactosyl 16:0,liver,401293.8 ± 92547.01 pg/mg
same,Lactosyl 18:0,liver,0.0 ± 0.0 pg/mg
same,Lactosyl 22:0,liver,604972.0 ± 219908.19 pg/mg
same,Lactosyl 24:1,liver,424590.5 ± 191122.31 pg/mg
same,Lactosyl C24:0,liver,317251.2 ± 183613.54 pg/mg
same,Sphingaine1P,liver,55129.9 ± 14495.18 pg/mg
same,Sphinganine,liver,299552.9 ± 52030.89 pg/mg
same,Sphingosine,liver,1192462 ± 75216.97 pg/mg
same,Sphingosine1P,liver,178631.8 ± 67607.36 pg/mg
same,dCer 16:0,liver,18233.3 ± 21176.21 pg/mg
same,dCer 18:0,liver,45901.3 ± 42922.13 pg/mg
same,dCer 20:0,liver,37867.7 ± 27772.5 pg/mg
same,dCer 22:0,liver,385034 ± 150652 pg/mg
same,dCer 24:0,liver,364847.1 ± 73663.91 pg/mg
same,dCer 24:1,liver,130075.8 ± 53105.06 pg/mg
same,Cer 14:0,pancreas,26.4 ± 4.51 pg/mg
same,Cer 16:0,pancreas,26.1 ± 10.18 pg/mg
same,Cer 18:0,pancreas,28.9 ± 6.11 pg/mg
same,Cer 18:1,pancreas,0 pg/mg
same,Cer 20:0,pancreas,1529.7 ± 140.3 pg/mg
same,Cer 22:0,pancreas,7541.1 ± 1118.82 pg/mg
same,Cer 24:0,pancreas,21064.5 ± 2932.0 pg/mg
same,Cer 24:1,pancreas,10791.6 ± 1783.65 pg/mg
same,Cer 26:0,pancreas,155.6 ± 36.08 pg/mg
same,Cer 26:1,pancreas,81.6 ± 16.04 pg/mg
same,DeoxySphinganie,pancreas,2.1 ± 0.29 pg/mg
same,Deoxysphingosine,pancreas,0.0 ± 0.0 pg/mg
same,Hexosyl 14:0,pancreas,3.8 ± 0.85 pg/mg
same,Hexosyl 16:0,pancreas,2561.5 ± 453.4 pg/mg
same,Hexosyl 18:0,pancreas,7.3 ± 3.14 pg/mg
same,Hexosyl 20:0,pancreas,112.7 ± 34.01 pg/mg
same,Hexosyl 22:0,pancreas,6774.3 ± 637.6 pg/mg
same,Hexosyl 24:0,pancreas,3358.5 ± 311.97 pg/mg
same,Hexosyl 24:1,pancreas,1427.8 ± 124.45 pg/mg
same,Lactosyl 16:0,pancreas,975.8 ± 208.21 pg/mg
same,Lactosyl 18:0,pancreas,52.8 ± 9.76 pg/mg
same,Lactosyl 22:0,pancreas,223.0 ± 50.43 pg/mg
same,Lactosyl 24:1,pancreas,310.1 ± 93.68 pg/mg
same,Lactosyl C24:0,pancreas,2057.1 ± 422.83 pg/mg
same,Sphingaine1P,pancreas,17.5 ± 11.69 pg/mg
same,Sphinganine,pancreas,25.9 ± 3.48 pg/mg
same,Sphingosine,pancreas,217.3 ± 27.75 pg/mg
same,Sphingosine1P,pancreas,90.3 ± 22.26 pg/mg
same,dCer 16:0,pancreas,3.8 ± 1.52 pg/mg
same,dCer 18:0,pancreas,0.0 ± 0.0 pg/mg
same,dCer 20:0,pancreas,2.0 ± 0.18 pg/mg
same,dCer 22:0,pancreas,24.6 ± 9.85 pg/mg
same,dCer 24:0,pancreas,206.7 ± 49.68 pg/mg
same,dCer 24:1,pancreas,24.0 ± 10.28 pg/mg
same,Cer 14:0,scWAT,41670.5 ± 9888.98 pg/mg
same,Cer 16:0,scWAT,200569.4 ± 60832.18 pg/mg
same,Cer 18:0,scWAT,90968.7 ± 40221.97 pg/mg
same,Cer 18:1,scWAT,24648 ± 8680 pg/mg
same,Cer 20:0,scWAT,189778.3 ± 38166.38 pg/mg
same,Cer 22:0,scWAT,835762.6 ± 112294.65 pg/mg
same,Cer 24:0,scWAT,2316061.3 ± 1012651.99 pg/mg
same,Cer 24:1,scWAT,2616280.7 ± 714833.34 pg/mg
same,Cer 26:0,scWAT,25284.4 ± 8047.31 pg/mg
same,Cer 26:1,scWAT,27852.3 ± 8212.8 pg/mg
same,DeoxySphinganie,scWAT,1039.3 ± 1085.07 pg/mg
same,Deoxysphingosine,scWAT,0.0 ± 0.0 pg/mg
same,Hexosyl 14:0,scWAT,3863.9 ± 2313.65 pg/mg
same,Hexosyl 16:0,scWAT,1558779.8 ± 419292.53 pg/mg
same,Hexosyl 18:0,scWAT,879349.9 ± 318302.5 pg/mg
